Values joined by “and” are separate entries in the source; they are usually repeats but may differ in a detail not shown here. Equal entries are not always repeated. Where two headings read alike, the source gives them in different places.
Columns and labels:
[1] = system: JAK/STAT pathway SEAP expression in HEK293T cells; experiment: CDH-GEMS receptor signaling SEAP assay; format: cell-based; conditions: Suppl Fig 9d
From the text: To test modularity and performance robustness of the CDHs in different molecular contexts, we inserted these modules in the generalizable extracellular molecule sensor (GEMS) receptor signaling pathway platform[24] and built CDH-GEMS. In these constructs the CDHs are localized extracellularly and function as ectodomain switches, fused to the backbone of the erythropoietin receptor, and an intracellular interleukin 6 receptor domain which activates the JAK/STAT pathway (Fig. 3d). The CDH-GEMS trigger the activation of the JAK/STAT pathway by the dimerization of their subunits. Thus, the drugs are expected to split the CDHs inactivating the signaling pathway as assessed by the expression of the reporter protein SEAP. All three CDH-GEMS were responsive to their respective drugs dynamic response range varied from approximately 6-fold (CDH-2) to 8-fold (CDH-1,3) (Fig. 3e). […] The CDH-GEMS were also reversible upon intermittent drug treatment (Supplementary Fig. 7h, i). Despite that comparisons between CDH-TFs and CDH-GEMS are not straightforward due to differences in the reporter signaling pathways, we observe a general trend for the CDHs to present lower IC50s when used as extracellular modules, which is consistent with overcoming drug permeability issues in cells.
HEK293T cells were maintained in DMEM medium with 10% FBS (Gibco) and Pen/Strep (Thermo Fisher). Cells were maintained and split every two days at around 80% confluence. HEK293T cells were seeded 24 h before transfection, and transfected with the lipofectamine 3000 kit (Thermo Fisher). Plasmids were cotransfected according to the Table S7. For the drug OFF-switch experiments, drugs were added 12 h post transfection and incubated with cells for 24 h before the SEAP detection assay.
Secreted alkaline phosphatase (SEAP) activity (U/L) in cell culture supernatants was quantified by kinetic measurements at 405 nm (1 min/measurement for 30 cycles) of absorbance increase due to phosphatase-mediated hydrolysis of para-nitrophenyl phosphate (pNPP).
Apparent IC50s of SPR drug competition assay were calculated using three-parameter nonlinear regression in GraphPad Prism (Version 8.3.0). Representative data of cellular assays are presented as individual values and mean values (bars). n = 3 refers to biological replicates. All IC50/EC50 values of cellular assays (CDH-TF, CDH-GEMS, AIR-TF and AIR-GEMS) reported were calculated using four-parameter nonlinear regression ± s.d.
Supplementary Figure 9: Comparison of ON-state reporter expression of weak affinity variants of LD3 in CDH-1/2-GEMS platform. a) ON-state expression of CDH-1-GEMS with LD3 and LD3_v3. b) Drug dose-dependent responses in engineered cells determined for the CDH-1-GEMS with LD3 and LD3_v3. c) ON-state expression of CDH-2-GEMS with LD3 and LD3_v3. d) Drug dose-dependent responses in engineered cells determined for the CDH-2-GEMS with LD3 and LD3_v3. In the data shown HEK293T cells were […]
quantification was done 24 hours after drug treatment. a, c) The bar charts show the mean ± s.d. of n = 3 biologically independent samples overlaid with a scatter dot plot of the original data points. b, d) Each […]
parameter nonlinear regression.
(1 picture or pasted object on this page, not shown here)

[2] = system: SEAP expression in HEK293T cells; experiment: MISO designer cells (CDH-1 + CDH-3 dual switches); format: cell-based; parameters: SEAP / Bottom (best-fit value) / Top (best-fit value) / Span (best-fit value): unit not given here; conditions: for logIC50 (best-fit value): drug in nM; for SEAP, Drug-3 turn OFF CDH-3-TF (with 1 µM Drug-1): Fig S13f; for SEAP, Drug-3 turn OFF CDH-3-GEMS (+1 µM Drug-3): Fig S13g, representative data; for IC50: Homo sapiens, HEK-293T, read-out: IC50 (best-fit value)
From the text: Fig. 5 Orthogonal chemical switches enable implementation of multi-input multi-output control modes in mammalian cells. a Scheme of multi-inputs multi-outputs (MIMO) designer cells where two drugs control two different outputs. b, c Cells were co-transfected with AIR-1/2-GEMS and CDH-3-TF regulate SEAP and Luciferase expression, respectively. […] AIR-1/2-GEMS coupled with SEAP expression circuits were co-transfected with CDH-1/2-TF circuits which control the Luciferase production. Respective drug concentrations ranged from 0.001 nM to 1 µM. […]
We then engineered MISO cells (Fig. 5d) with CDH-1-TF and CDH-3-TF dual switches (Fig. 5e) that encode OFF behaviors controlled by Drug-1 and Drug-3. […] This output behavior is distinct from the typical SISO systems which only show two persistent states (high, low) (Fig. 2c, f). […] This type of output in biological systems could be utilized to produce graded levels of responses that are robust to minor oscillations in drug concentrations, and could be used to dissect fundamental biological processes but also to provide persistent response levels in translational applications.
1-TF and CDH-3-TF circuits. Drug-1 concentrations ranged from 0.001 nM to 1 µM (left) and 1 µM Drug-1 with serial diluted Drug-3 from 0.001 nM to 1 µM (right). g) Quantification of SEAP activity controlled […]
by CDH-1-GEMS and CDH-3-GEMS circuits. […]
Luciferase production (l). b-k) Each data point represents the mean of n = 3 biological replicates, and the dose-dependent curve were fitted using four-parameter nonlinear regression.

[3] = Fig5e SEAP, CDH-3-TF, four-parameter fit
[4] = Fig5f SEAP, CDH-3-GEMS, three-parameter fit

For `CC1(C)CCC(CN2CCN(c3ccc(C(=O)NS(=O)(=O)c4ccc(NCC5CCOCC5)c([N+](=O)[O-])c4)c(Oc4cnc5[nH]ccc5c4)c3)CC2)=C(c2ccc(Cl)cc2)C1` [Drug-2, Venetoclax], the SEAP % ([1]; Bcl2:LD3, 0.001 nM) was 300.653% and 318.178% and 392.457%, the SEAP % ([1]; Bcl2:LD3, 0.01 nM) was 308.454% and 345.509% and 340.557% and the SEAP % ([1]; Bcl2:LD3, 0.1 nM) was 274.777% and 330.791% and 315.073%. The SEAP % ([1]; Bcl2:LD3, 1 nM) was 266.802% and 312.808% and 313.179%, the SEAP % ([1]; Bcl2:LD3, 10 nM) was 230.526% and 261.334% and 264.64% and the SEAP % ([1]; Bcl2:LD3, 50 nM) was 182.557% and 182.048% and 191.603%. For the same compound, the SEAP % ([1]; Bcl2:LD3, 100 nM) was 137.415% and 148.555% and 171.413%, the SEAP % ([1]; Bcl2:LD3, 500 nM) was 103.855% and 121.158% and 118.471% and the SEAP % ([1]; Bcl2:LD3, 1000 nM) was 85.4687% and 78.7046% and 88.4921%. For the same compound, the SEAP % ([1]; Bcl2:LD3_v3, 0.001 nM) was 435.755% and 579.505% and 634.353%, the SEAP % ([1]; Bcl2:LD3_v3, 0.01 nM) was 426.219% and 513.058% and 543.118% and the SEAP % ([1]; Bcl2:LD3_v3, 0.1 nM) was 389.885% and 497.895% and 507.442%. The SEAP % ([1]; Bcl2:LD3_v3, 1 nM) was 349.489% and 416.083% and 425.558%, the SEAP % ([1]; Bcl2:LD3_v3, 10 nM) was 179.661% and 237.904% and 242.508% and the SEAP % ([1]; Bcl2:LD3_v3, 50 nM) was 112.482% and 132.539% and 150.605%. The SEAP % ([1]; Bcl2:LD3_v3, 100 nM) was 97.6884% and 119.034% and 118.118%, the SEAP % ([1]; Bcl2:LD3_v3, 500 nM) was 69.1684% and 95.9179% and 92.604% and the SEAP % ([1]; Bcl2:LD3_v3, 1000 nM) was 52.9029% and 66.0602% and 70.7894%.
In the case of `COc1cc2c(cc1OC(C)C)[C@H](c1ccc(Cl)cc1)N(c1ccc(N(C)C[C@H]3CC[C@H](N4CCN(C)C(=O)C4)CC3)cc1)C(=O)C2` [Drug-3, NVP-CGM097], the “Bottom (best-fit value)” value [2, 3] is reported as 17.47, the “HillSlope (best-fit value)” value [2, 3] is reported as -0.6148 and the “Span (best-fit value)” value [2, 3] is reported as 17.06. For the same compound, the “Top (best-fit value)” value [2, 3] was 34.53, the “logIC50 (best-fit value)” value [2, 3] was 1.333 and the SEAP ([2]; Fig5e, turn OFF CDH-3-TF, 0.001 nM) was 33.8408 and 34.0469 and 34.3351. The SEAP ([2]; Fig5e, turn OFF CDH-3-TF, 0.01 nM) was 29.7183 and 31.0605 and 34.2655, the SEAP ([2]; Fig5e, turn OFF CDH-3-TF, 0.1 nM) was 37.5532 and 35.9265 and 39.0056 and the SEAP ([2]; Fig5e, turn OFF CDH-3-TF, 1 nM) was 35.3902 and 29.1113 and 33.3839. For the same compound, the SEAP ([2]; Fig5e, turn OFF CDH-3-TF, 10 nM) was 29.3646 and 23.7323 and 25.8725, the SEAP ([2]; Fig5e, turn OFF CDH-3-TF, 100 nM) was 25.079 and 20.2253 and 26.0755 and the SEAP ([2]; Fig5e, turn OFF CDH-3-TF, 1000 nM) was 15.9296 and 18.8913 and 19.9566. For the same compound, the “Bottom (best-fit value)” value [2, 4] was 53.47, the “Span (best-fit value)” value [2, 4] was 48.26 and the “Top (best-fit value)” value [2, 4] was 101.7. For the same compound, the “logIC50 (best-fit value)” value [2, 4] was 0.4646, the SEAP ([2]; Fig5f, turn OFF CDH-3-GEMS, 0.001 nM) was 113.362 and 89.612 and 99.5052 and the SEAP ([2]; Fig5f, turn OFF CDH-3-GEMS, 0.01 nM) was 121.028 and 91.7365 and 92.479. For the same compound, the SEAP ([2]; Fig5f, turn OFF CDH-3-GEMS, 0.1 nM) was 104.447 and 97.6051 and 99.9447, the SEAP ([2]; Fig5f, turn OFF CDH-3-GEMS, 1 nM) was 100.353 and 82.6179 and 86.7829 and the SEAP ([2]; Fig5f, turn OFF CDH-3-GEMS, 10 nM) was 58.8118 and 64.1853 and 65.9179. The SEAP ([2]; Fig5f, turn OFF CDH-3-GEMS, 100 nM) was 45.2413 and 57.2529 and 77.3068, the SEAP ([2]; Fig5f, turn OFF CDH-3-GEMS, 1000 nM) was 32.455 and 54.8353 and 61.4484 and the “SEAP, Drug-3 turn OFF CDH-3-TF (with 1 µM Drug-1)” value (shortened to “SEAP, Drug-3 turn OFF CDH-3-TF”) ([2]; Drug-3 0.001 nM with 1 µM Drug-1) was 20.0495 U/L and 20.062 U/L and 15.0342 U/L. The “SEAP, Drug-3 turn OFF CDH-3-TF” value ([2]; Drug-3 0.01 nM with 1 µM Drug-1) was 17.0461 U/L and 19.1502 U/L and 14.3967 U/L, the “SEAP, Drug-3 turn OFF CDH-3-TF” value ([2]; Drug-3 0.1 nM with 1 µM Drug-1) was 19.7901 U/L and 16.3361 U/L and 16.2198 U/L and the “SEAP, Drug-3 turn OFF CDH-3-TF” value ([2]; Drug-3 1 nM with 1 µM Drug-1) was 20.2218 U/L and 16.2578 U/L and 17.1111 U/L. The “SEAP, Drug-3 turn OFF CDH-3-TF” value ([2]; Drug-3 10 nM with 1 µM Drug-1) was 16.1201 U/L and 11.9157 U/L and 15.1062 U/L, the “SEAP, Drug-3 turn OFF CDH-3-TF” value ([2]; Drug-3 100 nM with 1 µM Drug-1) was 12.136 U/L and 6.982 U/L and 12.7567 U/L and the “SEAP, Drug-3 turn OFF CDH-3-TF” value ([2]; Drug-3 1000 nM with 1 µM Drug-1) was 12.5352 U/L and 7.0164 U/L and 6.482 U/L. The “SEAP, Drug-3 turn OFF CDH-3-GEMS (+1 µM Drug-3)” value (from here on “SEAP, Drug-3 turn OFF CDH-3-GEMS”) ([2]; Drug-3 0.001 nM + 1 µM Drug-3) was 32.0934 U/L and 36.9962 U/L and 29.2725 U/L, the “SEAP, Drug-3 turn OFF CDH-3-GEMS” value ([2]; Drug-3 0.01 nM + 1 µM Drug-3) was 28.8246 U/L and 27.8451 U/L and 33.3513 U/L and the “SEAP, Drug-3 turn OFF CDH-3-GEMS” value ([2]; Drug-3 0.1 nM + 1 µM Drug-3) was 25.7325 U/L and 31.532 U/L and 32.3299 U/L. The “SEAP, Drug-3 turn OFF CDH-3-GEMS” value ([2]; Drug-3 1 nM + 1 µM Drug-3) was 22.1832 U/L and 28.8305 U/L and 36.3315 U/L, the “SEAP, Drug-3 turn OFF CDH-3-GEMS” value ([2]; Drug-3 10 nM + 1 µM Drug-3) was 20.2059 U/L and 25.0579 U/L and 21.1125 U/L and the “SEAP, Drug-3 turn OFF CDH-3-GEMS” value ([2]; Drug-3 100 nM + 1 µM Drug-3) was 19.7003 U/L and 17.1154 U/L and 24.8794 U/L. The “SEAP, Drug-3 turn OFF CDH-3-GEMS” value ([2]; Drug-3 1000 nM + 1 µM Drug-3) was 16.9947 U/L and 17.5781 U/L and 20.7969 U/L, the IC50 ([2]; Fig5e SEAP, turn OFF CDH-3-TF, four-parameter fit) was 21.5 nM and the IC50 ([2]; Fig5f SEAP, turn OFF CDH-3-GEMS, three-parameter fit) was 2.92 nM.

— paper PMC8486872, “A rational blueprint for the design of chemically-controlled protein switches” (Nature Communications, 2021)
